# Assay results: ChEMBL document CHEMBL1201862, “PubChem BioAssay data set” (2004)
#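 How tested: cells in 96-well plates exposed to compound for 48 hours at five concentrations. Here, GI50 denotes the concentration required for 50% inhibition of growth.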 Activity calls are given as the source filed them. Cut-off read from the data, not from the text of the source: active = GI50 up to about 1.1 µM and inactive = higher.
# Experiments:
# Assay in all cases: NCI anticancer screen, dose series, 48 h
# 786-0 = tested on: 786-0
# A498 = tested on: A498
# A549 = tested on: A549
# ACHN = tested on: ACHN
# BT-549 = tested on: BT-549
# CAKI-1 = tested on: CAKI-1
# CCRF-CEM = tested on: CCRF-CEM
# COLO 205 = tested on: COLO 205
# DU-145 = tested on: DU-145
# EKVX = tested on: EKVX
# HCC 2998 = tested on: HCC 2998
# HCT-116 = tested on: HCT-116
# HCT-15 = tested on: HCT-15
# HL-60 = tested on: HL-60
# HOP-62 = tested on: HOP-62
# HOP-92 = tested on: HOP-92
# HT-29 = tested on: HT-29
# Hs-578T = tested on: Hs-578T
# IGROV-1 = tested on: IGROV-1
# K562 = tested on: K562
# KM12 = tested on: KM12
# LOX IMVI = tested on: LOX IMVI
# MCF7 = tested on: MCF7
# MDA-MB-231 = tested on: MDA-MB-231
# MDA-MB-435 = tested on: MDA-MB-435
# MDA-N = tested on: MDA-N
# MOLT-4 = tested on: MOLT-4
# Malme-3M = tested on: Malme-3M
# NCI-H226 = tested on: NCI-H226
# NCI-H23 = tested on: NCI-H23
# NCI-H460 = tested on: NCI-H460
# NCI-H522 = tested on: NCI-H522
# NCI/ADR-RES = tested on: NCI/ADR-RES
# OVCAR-3 = tested on: OVCAR-3
# OVCAR-4 = tested on: OVCAR-4
# OVCAR-5 = tested on: OVCAR-5
# OVCAR-8 = tested on: OVCAR-8
# PC-3 = tested on: PC-3
# RPMI-8226 = tested on: RPMI-8226
# RXF 393 = tested on: RXF 393
# SF-268 = tested on: SF-268
# SF-295 = tested on: SF-295
# SF-539 = tested on: SF-539
# SK-MEL-28 = tested on: SK-MEL-28
# SK-MEL-5 = tested on: SK-MEL-5
# SN12C = tested on: SN12C
# SNB-19 = tested on: SNB-19
# SNB-75 = tested on: SNB-75
# SR = tested on: SR
# SW-620 = tested on: SW-620
# TK-10 = tested on: TK-10
# U-251 = tested on: U-251
# UACC-257 = tested on: UACC-257
# UO-31 = tested on: UO-31
structure (smiles),measurement,setting,value
NC(=O)C(N)Cc1ccc(O)cn1 (centres undefined),GI50,786-0,> 100 µM (inactive)
same,GI50,A498,> 100 µM (inactive)
same,GI50,A549,> 100 µM (inactive)
same,GI50,ACHN,> 100 µM (inactive)
same,GI50,BT-549,> 100 µM (inactive)
same,GI50,CAKI-1,> 100 µM (inactive)
same,GI50,CCRF-CEM,> 100 µM (inactive)
same,GI50,COLO 205,> 100 µM (inactive)
same,GI50,DU-145,> 100 µM (inactive)
same,GI50,EKVX,> 100 µM (inactive)
same,GI50,HCC 2998,> 100 µM (inactive)
same,GI50,HCT-116,> 100 µM (inactive)
same,GI50,HCT-15,> 100 µM
same,GI50,HL-60,> 100 µM (inactive)
same,GI50,HOP-62,> 100 µM (inactive)
same,GI50,HOP-92,> 100 µM (inactive)
same,GI50,HT-29,> 100 µM (inactive)
same,GI50,Hs-578T,> 100 µM (inactive)
same,GI50,IGROV-1,> 100 µM (inactive)
same,GI50,K562,> 100 µM (inactive)
same,GI50,KM12,> 100 µM (inactive)
same,GI50,LOX IMVI,> 100 µM (inactive)
same,GI50,MCF7,> 100 µM (inactive)
same,GI50,MDA-MB-231,> 100 µM (inactive)
same,GI50,MDA-MB-435,> 100 µM (inactive)
same,GI50,MDA-N,> 100 µM (inactive)
same,GI50,MOLT-4,> 100 µM (inactive)
same,GI50,Malme-3M,> 100 µM (inactive)
same,GI50,NCI-H226,> 100 µM (inactive)
same,GI50,NCI-H23,> 100 µM (inactive)
same,GI50,NCI-H460,> 100 µM (inactive)
same,GI50,NCI-H522,> 100 µM (inactive)
same,GI50,NCI/ADR-RES,> 100 µM (inactive)
same,GI50,OVCAR-3,> 100 µM (inactive)
same,GI50,OVCAR-4,> 100 µM (inactive)
same,GI50,OVCAR-5,> 100 µM (inactive)
same,GI50,OVCAR-8,> 100 µM (inactive)
same,GI50,PC-3,> 100 µM (inactive)
same,GI50,RPMI-8226,> 100 µM (inactive)
same,GI50,RXF 393,> 100 µM (inactive)
same,GI50,SF-268,> 100 µM (inactive)
same,GI50,SF-295,> 100 µM (inactive)
same,GI50,SF-539,> 100 µM (inactive)
same,GI50,SK-MEL-28,> 100 µM (inactive)
same,GI50,SK-MEL-5,> 100 µM (inactive)
same,GI50,SN12C,> 100 µM (inactive)
same,GI50,SNB-19,> 100 µM (inactive)
same,GI50,SNB-75,> 100 µM (inactive)
same,GI50,SR,> 100 µM (inactive)
same,GI50,SW-620,> 100 µM (inactive)
same,GI50,TK-10,> 100 µM (inactive)
same,GI50,U-251,> 100 µM (inactive)
same,GI50,UACC-257,> 100 µM (inactive)
same,GI50,UO-31,> 100 µM (inactive)
